# Data taken from PubChem BioAssay (NCI).
#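 Interpolation was linear, between the two tested concentrations surrounding the appropriate level; five concentrations were tested over 48 hours in 96-well plates. Here, GI50 denotes the concentration required for 50% inhibition of growth. The concentration for full growth arrest is given as TGI.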
# Columns and labels:
# Assay in all cases: NCI anticancer screen, dose series, 48 h
# [1] = system: SNB-19 CNS
# [2] = system: BT-549 breast
# [3] = system: NCI-H460 lung
# [4] = system: TK-10 renal
# [5] = system: NCI-H23 lung
# [6] = system: HCT-116 colon
# [7] = system: CAKI-1 renal
# [8] = system: M14 melanoma
# [9] = system: HCT-15 colon
# [10] = system: SF-295 CNS
# [11] = system: SNB-75 CNS
# [12] = system: CCRF-CEM leukemia
# [13] = system: SW-620 colon
# [14] = system: HS 578T breast
# [15] = system: A498 renal
# [16] = system: UACC-62 melanoma
# [17] = system: T-47D breast
# [18] = system: MDA-MB-231 breast
# [19] = system: MDA-MB-435
# [20] = system: NCI-H522 lung
# [21] = system: SF-268 CNS
# [22] = system: UACC-257 melanoma
# [23] = system: HL-60(TB) leukemia
# [24] = system: MCF7 breast
# [25] = system: KM12 colon
# [26] = system: RPMI-8226 leukemia
# [27] = system: LOX IMVI melanoma
# [28] = system: SK-MEL-2 melanoma
# [29] = system: HOP-92 NSCLC
# [30] = system: K-562 leukemia
# [31] = system: UO-31 renal
# [32] = system: NCI-H226 lung
# [33] = system: 786-0 renal
# [34] = system: SF-539 CNS
# [35] = system: NCI/ADR-RES ovarian
# [36] = system: IGROV1 ovarian
# [37] = system: U251 CNS
# [38] = system: OVCAR-3 ovarian
# [39] = system: HT29 colon
# [40] = system: SN12C renal
# [41] = system: HCC-2998 colon
# [42] = system: DU-145 prostate
# [43] = system: EKVX NSCLC
# [44] = system: HOP-62 NSCLC
# [45] = system: MOLT-4 leukemia
# [46] = system: OVCAR-8 ovarian
# [47] = system: COLO 205 colon
# [48] = system: SK-OV-3 ovarian
# [49] = system: ACHN renal
# [50] = system: PC-3 prostate
# [51] = system: OVCAR-5 ovarian
# [52] = system: RXF 393 renal
# [53] = system: OVCAR-4 ovarian
# [54] = system: A549 NSCLC
# [55] = system: SK-MEL-5 melanoma
# [56] = system: SK-MEL-28 melanoma
smiles,measurement,setting,value
CC1=C(C(=O)NCCc2ccccc2)CC(C(=O)NCCc2ccccc2)=C(C)N1,TGI,[1],72500 nM
same,TGI,[2],> 100000 nM
same,TGI,[3],> 100000 nM
same,TGI,[4],> 100000 nM
same,TGI,[5],> 100000 nM
same,TGI,[6],> 100000 nM
same,TGI,[7],> 100000 nM
same,TGI,[8],> 100000 nM
same,TGI,[9],> 100000 nM
same,TGI,[10],> 100000 nM
same,TGI,[11],69200 nM
same,TGI,[12],76500 nM
same,TGI,[13],> 100000 nM
same,TGI,[14],> 100000 nM
same,TGI,[15],> 100000 nM
same,TGI,[16],> 100000 nM
same,TGI,[17],> 100000 nM
same,TGI,[18],> 100000 nM
same,TGI,[19],> 100000 nM
same,TGI,[20],> 100000 nM
same,TGI,[21],> 100000 nM
same,TGI,[22],> 100000 nM
same,TGI,[23],> 100000 nM
same,TGI,[24],> 100000 nM
same,TGI,[25],> 100000 nM
same,TGI,[26],> 100000 nM
same,TGI,[27],> 100000 nM
same,TGI,[28],> 100000 nM
same,TGI,[29],> 100000 nM
same,TGI,[30],> 100000 nM
same,TGI,[31],> 100000 nM
same,TGI,[32],> 100000 nM
same,TGI,[33],> 100000 nM
same,TGI,[34],> 100000 nM
same,TGI,[35],> 100000 nM
same,TGI,[36],> 100000 nM
same,TGI,[37],> 100000 nM
same,TGI,[38],> 100000 nM
same,TGI,[39],> 100000 nM
same,TGI,[40],> 100000 nM
same,TGI,[41],> 100000 nM
same,TGI,[42],> 100000 nM
same,TGI,[43],> 100000 nM
same,TGI,[44],> 100000 nM
same,TGI,[45],> 100000 nM
same,TGI,[46],> 100000 nM
same,TGI,[47],> 100000 nM
same,TGI,[48],> 100000 nM
same,TGI,[49],> 100000 nM
same,TGI,[50],> 100000 nM
same,TGI,[51],> 100000 nM
same,TGI,[52],> 100000 nM
same,TGI,[53],> 100000 nM
same,TGI,[54],> 100000 nM
Cc1cc(N2CCCC2)nc(NC2CCCC(Nc3ccnc4cc(Cl)ccc34)C2)n1 (stereo not drawn),GI50,[55],1690 nM
same,TGI,[55],3090 nM
same,GI50,[1],1460 nM
same,TGI,[1],3440 nM
same,GI50,[2],1800 nM
same,TGI,[2],3350 nM
same,GI50,[4],2550 nM
same,TGI,[4],4560 nM
same,GI50,[5],1590 nM
same,TGI,[5],4140 nM
same,GI50,[6],442 nM
same,TGI,[6],1680 nM
same,GI50,[8],1140 nM
same,TGI,[8],2510 nM
same,GI50,[9],1020 nM
same,TGI,[9],2440 nM
same,GI50,[10],1470 nM
same,TGI,[10],2890 nM
same,GI50,[12],408 nM
same,TGI,[12],3370 nM
same,GI50,[13],1270 nM
same,TGI,[13],3250 nM
same,GI50,[14],2000 nM
same,TGI,[14],4720 nM
same,GI50,[15],1910 nM
same,TGI,[15],3480 nM
same,GI50,[16],1920 nM
same,TGI,[16],3570 nM
same,GI50,[17],1710 nM
same,TGI,[17],4830 nM
same,GI50,[19],1560 nM
same,TGI,[19],3110 nM
same,GI50,[20],1580 nM
same,TGI,[20],3210 nM
same,GI50,[21],1190 nM
same,TGI,[21],3460 nM
same,GI50,[22],1990 nM
same,TGI,[22],3760 nM
same,GI50,[24],563 nM
same,TGI,[24],2630 nM
same,GI50,[25],1500 nM
same,TGI,[25],3890 nM
same,GI50,[26],322 nM
same,TGI,[26],1400 nM
same,GI50,[27],681 nM
same,TGI,[27],2100 nM
same,GI50,[28],1700 nM
same,TGI,[28],3270 nM
same,GI50,[31],1050 nM
same,TGI,[31],2290 nM
same,GI50,[32],1910 nM
same,TGI,[32],3920 nM
same,GI50,[33],1450 nM
same,TGI,[33],2870 nM
same,GI50,[34],1260 nM
same,TGI,[34],2620 nM
same,GI50,[35],1780 nM
same,TGI,[35],5690 nM
same,GI50,[36],967 nM
same,TGI,[36],3200 nM
same,GI50,[56],1770 nM
same,TGI,[56],3430 nM
same,GI50,[37],1480 nM
same,TGI,[37],2860 nM
same,GI50,[38],1670 nM
same,TGI,[38],4210 nM
same,GI50,[41],1120 nM
same,TGI,[41],2680 nM
same,GI50,[42],1240 nM
same,TGI,[42],2770 nM
same,GI50,[43],1860 nM
same,TGI,[43],5020 nM
same,GI50,[44],1320 nM
same,TGI,[44],2950 nM
same,GI50,[45],478 nM
same,TGI,[45],3130 nM
same,GI50,[46],1920 nM
same,TGI,[46],4390 nM
same,GI50,[47],1460 nM
same,TGI,[47],3350 nM
same,GI50,[48],1860 nM
same,TGI,[48],3490 nM
same,GI50,[49],1270 nM
same,TGI,[49],2790 nM
same,GI50,[51],1450 nM
same,TGI,[51],4260 nM
same,GI50,[52],1330 nM
same,TGI,[52],2710 nM
same,GI50,[53],1520 nM
same,TGI,[53],5270 nM
CN(C)c1ccc(/C=c2/c3ccccc3n3c2cc(C24CC5CC(CC(C5)C2)C4)[n+]3C)cc1,TGI,[1],1360 nM
same,TGI,[4],1650 nM
same,TGI,[7],1040 nM
same,TGI,[12],> 100000 nM
same,TGI,[13],1440 nM
same,TGI,[15],1080 nM
same,TGI,[19],694 nM
same,TGI,[23],666 nM
same,TGI,[25],405 nM
same,TGI,[26],> 100000 nM
same,TGI,[32],1490 nM
same,TGI,[33],658 nM
same,TGI,[56],2160 nM
same,TGI,[38],1600 nM
same,TGI,[40],1120 nM
same,TGI,[42],1840 nM
same,TGI,[43],1580 nM
same,TGI,[45],> 100000 nM
same,TGI,[47],320 nM
same,TGI,[48],1480 nM
same,TGI,[49],1230 nM
same,TGI,[51],1610 nM
same,TGI,[53],731 nM
same,TGI,[54],1090 nM
